The values below come from PMC12837263, “β,β-Dimethylacrylalkannin Restores Colistin Efficacy Against mcr- and TCS-Mediated Resistant Gram-Negative Bacteria via Membrane Disturbance” (Antibiotics, 2025).

One data set has as its system six susceptible strains. Kind of data set: Checkerboard assay, six susceptible strains (summary). The format is cell-based. Particulars: with β,β-Dim. How it is done:
The FICI of β,β-Dim–colistin combination was determined by a checkerboard assay. Briefly, two-fold serial dilutions of β,β-Dim and colistin were prepared in a 96-well plate. After incubation at 37 °C for 18 h with bacterial suspension (10^6 CFU/mL), OD600 values were measured. FICI = (MICβ,β-Dim in combination/MICβ,β-Dim) + (MICcolistin in combination/MICcolistin). The synergistic effect of β,β-Dim with other antibiotics was measured in the same way. Synergy was considered to be an FICI ≤ 0.5.

Another data set concerns sheep blood cells. Kind of data set: Hemolytic activity. The format is cell-based. Particulars: Ovis aries, Erythrocyte; sheep erythrocytes, 1 h; selection criterion; read-out: IC50 hemolysis. How it is done:
Toxicity assessment was performed by using sheep blood cells, human renal proximal tubular epithelial HK-2, and human hepatocarcinoma HepG2. Briefly, 8% erythrocyte suspensions were incubated with the test compounds (0–250 µM) for 1 h at 37 °C. After centrifugation, supernatants were transferred to a 96-well plate, and absorbance was measured at 570 nm.
The HepG2 and HK-2 cells (10^4 cells/well) were cultured in DMEM medium containing 10% fetal bovine serum (FBS) and then placed in a 5% CO2 incubator for 24 h. The culture medium was replaced with fresh DMEM medium containing the compounds (0–250 µM), followed by a further 24 h incubation. Subsequently, 10 µL of CCK-8 was added and incubated for 1 h, and OD450nm values were measured.Hemolysis% = [OD570nm(drug) − OD570nm(blank)]/[OD570nm(TritonX−100) − OD570nm(blank)] × 100%Cell viability% = [OD450nm(drug) − OD450nm(blank)]/[OD450nm(negative) − OD450nm(blank)] × 100%

For data set [1] the following is noted: acute oral, mice; cited from earlier work.
The next data set deals with E. coli spheroplasts. Kind of data set: Membrane permeability of spheroplasts (PI). Format: cell-based. How it is done:
The cytoplasmic membrane LPS concentrations of E. coli BW25113, E. coli BW25113-mcr-1, and E. coli BW25113-pmrBR93P were quantified using a Chromogenic LAL Endotoxin Assay Kit (Cat No, C0273S, Beyotime, Shanghai, China). Firstly, spheroplasts were prepared according to a previously described method to remove the outer membrane. Briefly, bacterial cells were washed with Tris buffer and resuspended in Tris buffer containing 20% sucrose. EDTA (250 μL, 10 mg/mL) and lysozyme (1 mL, 10 mg/mL) were added, followed by incubation at 30 °C for 1 h with shaking at 80 rpm. Trypsin (500 μL, 10 mg/mL) was added and incubated for an additional 15 min. […] Then, the released LPS was quantified by reacting with LPS detection reagents, and absorbance was measured at 405 nm.
The S. aureus ATCC 29213 bacterial suspension (OD600 = 0.5) was incubated with fluorescent probe propidium iodide (PI, Cat No. C1008S, Beyotime, Shanghai, China, final concentration 10 µM) for 30 min. […] Fluorescence intensity was measured at an excitation/emission wavelength of 535/615 nm. The cytoplasmic membrane permeability of E. coli BW25113, E. coli BW25113-mcr-1, and E. coli BW25113-pmrBR93P induced by β,β-Dim was assessed by preparing spheroplasts.

As for colistin, the “reduction of colistin MIC” value in the data set with six susceptible strains is on record as 4–64 fold.

In general, IC50 refers to the concentration that gives 50% inhibition. Regarding `CC(C)=CC[C@H](OC(=O)C=C(C)C)C1=CC(=O)c2c(O)ccc(O)c2C1=O` [β,β-Dim, β,β-dimethylacrylalkannin], the IC50 with sheep blood cells was above 10 µM. Besides, the “median lethal dose (LD50)” value in data set [1] is reported as “exceeds 10 g/kg”. Further, in the data set with E. coli spheroplasts, the membrane permeability result is recorded as “markedly increased membrane permeability”.
